Reference: the NIST ThermoML archive (doi:10.1016/j.tca.2005.11.041)
± gives the expanded uncertainty stated by the source.

Test: excess molar enthalpy (molar enthalpy of mixing); xn = mol fraction of the nth substance listed
Settings: Liquid, Flow calorimetry

SMILES: COC=O [methyl methanoate] + CCCO
- excess molar enthalpy (298.15 K, 5000 kPa, x1 = 0.0399): 0.0784 ± 0.000789 kcal/mol
- excess molar enthalpy (298.15 K, 5000 kPa, x1 = 0.0788): 0.1484 ± 0.00134 kcal/mol
- excess molar enthalpy (298.15 K, 5000 kPa, x1 = 0.1201): 0.2123 ± 0.00184 kcal/mol
- excess molar enthalpy (298.15 K, 5000 kPa, x1 = 0.1621): 0.2668 ± 0.00225 kcal/mol
- excess molar enthalpy (298.15 K, 5000 kPa, x1 = 0.2066): 0.3134 ± 0.00263 kcal/mol
- excess molar enthalpy (298.15 K, 5000 kPa, x1 = 0.2501): 0.3511 ± 0.00287 kcal/mol
- excess molar enthalpy (298.15 K, 5000 kPa, x1 = 0.2944): 0.38 ± 0.00311 kcal/mol
- excess molar enthalpy (298.15 K, 5000 kPa, x1 = 0.3414): 0.4016 ± 0.00335 kcal/mol
- excess molar enthalpy (298.15 K, 5000 kPa, x1 = 0.3893): 0.4175 ± 0.00335 kcal/mol
- excess molar enthalpy (298.15 K, 5000 kPa, x1 = 0.4381): 0.4248 ± 0.00359 kcal/mol
- excess molar enthalpy (298.15 K, 5000 kPa, x1 = 0.4878): 0.4274 ± 0.00359 kcal/mol
- excess molar enthalpy (298.15 K, 5000 kPa, x1 = 0.5386): 0.4217 ± 0.00335 kcal/mol
- excess molar enthalpy (298.15 K, 5000 kPa, x1 = 0.5903): 0.4078 ± 0.00335 kcal/mol
- excess molar enthalpy (298.15 K, 5000 kPa, x1 = 0.6452): 0.3837 ± 0.00311 kcal/mol
- excess molar enthalpy (298.15 K, 5000 kPa, x1 = 0.699): 0.3526 ± 0.00287 kcal/mol
- excess molar enthalpy (298.15 K, 5000 kPa, x1 = 0.7562): 0.3063 ± 0.00263 kcal/mol
- excess molar enthalpy (298.15 K, 5000 kPa, x1 = 0.8146): 0.2533 ± 0.00215 kcal/mol
- excess molar enthalpy (298.15 K, 5000 kPa, x1 = 0.8743): 0.1849 ± 0.00163 kcal/mol
- excess molar enthalpy (298.15 K, 5000 kPa, x1 = 0.9376): 0.09713 ± 0.000932 kcal/mol
- excess molar enthalpy (298.15 K, 10000 kPa, x1 = 0.0398): 0.08184 ± 0.000813 kcal/mol
- excess molar enthalpy (298.15 K, 10000 kPa, x1 = 0.0786): 0.1545 ± 0.00139 kcal/mol
- excess molar enthalpy (298.15 K, 10000 kPa, x1 = 0.1197): 0.2204 ± 0.00189 kcal/mol
- excess molar enthalpy (298.15 K, 10000 kPa, x1 = 0.1616): 0.2756 ± 0.00232 kcal/mol
- excess molar enthalpy (298.15 K, 10000 kPa, x1 = 0.2061): 0.3245 ± 0.00263 kcal/mol
- excess molar enthalpy (298.15 K, 10000 kPa, x1 = 0.2495): 0.3621 ± 0.00311 kcal/mol
- excess molar enthalpy (298.15 K, 10000 kPa, x1 = 0.2937): 0.3913 ± 0.00311 kcal/mol
- excess molar enthalpy (298.15 K, 10000 kPa, x1 = 0.3407): 0.4134 ± 0.00335 kcal/mol
- excess molar enthalpy (298.15 K, 10000 kPa, x1 = 0.3885): 0.4284 ± 0.00359 kcal/mol
- excess molar enthalpy (298.15 K, 10000 kPa, x1 = 0.4373): 0.436 ± 0.00359 kcal/mol
- excess molar enthalpy (298.15 K, 10000 kPa, x1 = 0.487): 0.4358 ± 0.00359 kcal/mol
- excess molar enthalpy (298.15 K, 10000 kPa, x1 = 0.5377): 0.428 ± 0.00359 kcal/mol
- excess molar enthalpy (298.15 K, 10000 kPa, x1 = 0.5895): 0.4126 ± 0.00335 kcal/mol
- excess molar enthalpy (298.15 K, 10000 kPa, x1 = 0.6444): 0.3875 ± 0.00311 kcal/mol
- excess molar enthalpy (298.15 K, 10000 kPa, x1 = 0.6983): 0.3565 ± 0.00287 kcal/mol
- excess molar enthalpy (298.15 K, 10000 kPa, x1 = 0.7556): 0.3115 ± 0.00263 kcal/mol
- excess molar enthalpy (298.15 K, 10000 kPa, x1 = 0.8141): 0.2558 ± 0.00217 kcal/mol
- excess molar enthalpy (298.15 K, 10000 kPa, x1 = 0.8739): 0.1848 ± 0.00163 kcal/mol
- excess molar enthalpy (298.15 K, 10000 kPa, x1 = 0.9374): 0.09637 ± 0.000932 kcal/mol
- excess molar enthalpy (333.15 K, 10000 kPa, x1 = 0.0403): 0.0804 ± 0.000813 kcal/mol
- excess molar enthalpy (333.15 K, 10000 kPa, x1 = 0.0788): 0.1602 ± 0.00143 kcal/mol
- excess molar enthalpy (333.15 K, 10000 kPa, x1 = 0.1205): 0.2359 ± 0.00201 kcal/mol
- excess molar enthalpy (333.15 K, 10000 kPa, x1 = 0.1629): 0.3022 ± 0.00263 kcal/mol
- excess molar enthalpy (333.15 K, 10000 kPa, x1 = 0.2061): 0.3577 ± 0.00287 kcal/mol
- excess molar enthalpy (333.15 K, 10000 kPa, x1 = 0.25): 0.4038 ± 0.00335 kcal/mol
- excess molar enthalpy (333.15 K, 10000 kPa, x1 = 0.2948): 0.4424 ± 0.00359 kcal/mol
- excess molar enthalpy (333.15 K, 10000 kPa, x1 = 0.3404): 0.4715 ± 0.00382 kcal/mol
- excess molar enthalpy (333.15 K, 10000 kPa, x1 = 0.3868): 0.4918 ± 0.00406 kcal/mol
- excess molar enthalpy (333.15 K, 10000 kPa, x1 = 0.437): 0.5043 ± 0.00406 kcal/mol
- excess molar enthalpy (333.15 K, 10000 kPa, x1 = 0.4853): 0.5087 ± 0.00406 kcal/mol
- excess molar enthalpy (333.15 K, 10000 kPa, x1 = 0.5374): 0.5014 ± 0.00406 kcal/mol
- excess molar enthalpy (333.15 K, 10000 kPa, x1 = 0.5907): 0.4864 ± 0.00406 kcal/mol
- excess molar enthalpy (333.15 K, 10000 kPa, x1 = 0.645): 0.4589 ± 0.00382 kcal/mol
- excess molar enthalpy (333.15 K, 10000 kPa, x1 = 0.7005): 0.4193 ± 0.00335 kcal/mol
- excess molar enthalpy (333.15 K, 10000 kPa, x1 = 0.7572): 0.3654 ± 0.00311 kcal/mol
- excess molar enthalpy (333.15 K, 10000 kPa, x1 = 0.8151): 0.3029 ± 0.00263 kcal/mol
- excess molar enthalpy (333.15 K, 10000 kPa, x1 = 0.8743): 0.2236 ± 0.00191 kcal/mol
- excess molar enthalpy (333.15 K, 10000 kPa, x1 = 0.9347): 0.1235 ± 0.00115 kcal/mol
